A word on the Km: it is the substrate concentration at which the rate is half of its maximum.

The target in the test is T1, ZPH1101 (Bacillus subtilis, UniProt O34796).
T1 construct: gene yvkC; full-length zph1101 in pET29a, N-terminal 6xHis, E. coli BL21(DE3), Ni-NTA, 90 kDa
Description: HPLC of residual ZEA, Michaelis-Menten fit. The format is biochemical. As to conditions: ATP, Mg2+; pH 8.0, 45 °C. As to the method:
HPLC of residual ZEA, Michaelis-Menten fit on ZPH1101 | Michaelis constant (Km), and catalytic constant (kcat) were calculated through fitting to be

T1 sequence (O34796 whole entry): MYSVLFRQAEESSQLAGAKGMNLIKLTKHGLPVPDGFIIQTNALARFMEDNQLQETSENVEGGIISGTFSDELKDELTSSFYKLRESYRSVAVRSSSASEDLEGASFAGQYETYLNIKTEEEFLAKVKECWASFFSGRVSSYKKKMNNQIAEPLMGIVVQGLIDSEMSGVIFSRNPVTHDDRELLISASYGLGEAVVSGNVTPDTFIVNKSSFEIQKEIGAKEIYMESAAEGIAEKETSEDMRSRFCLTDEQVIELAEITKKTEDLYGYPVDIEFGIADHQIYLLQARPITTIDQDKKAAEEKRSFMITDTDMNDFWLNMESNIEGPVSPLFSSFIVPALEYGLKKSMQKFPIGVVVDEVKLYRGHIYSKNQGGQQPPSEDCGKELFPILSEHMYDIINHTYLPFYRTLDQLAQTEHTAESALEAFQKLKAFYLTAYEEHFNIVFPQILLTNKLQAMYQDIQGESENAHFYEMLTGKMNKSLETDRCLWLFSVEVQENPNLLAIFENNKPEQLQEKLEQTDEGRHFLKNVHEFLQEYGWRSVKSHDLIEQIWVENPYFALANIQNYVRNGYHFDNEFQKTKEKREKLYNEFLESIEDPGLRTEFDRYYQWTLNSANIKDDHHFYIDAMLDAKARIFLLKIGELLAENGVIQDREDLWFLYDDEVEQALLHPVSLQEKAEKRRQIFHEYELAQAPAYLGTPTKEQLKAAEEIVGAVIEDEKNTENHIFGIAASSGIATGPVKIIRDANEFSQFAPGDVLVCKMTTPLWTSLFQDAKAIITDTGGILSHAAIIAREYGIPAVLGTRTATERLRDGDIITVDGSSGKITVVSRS

Consider `C[C@H]1CCCC(=O)CCC/C=C/c2cc(O)cc(O)c2C(=O)O1` [zearalenone], for which the Km came out at 18.2 µM.

Values taken from publication PMC11768653, “Characterization of the Phosphotransferase from Bacillus subtilis 1101 That Is Responsible for the Biotransformation of Zearalenone” (Toxins, 2025).
